Kd data for one compound are collected here from ChEMBL document CHEMBL1127391, “Generally applicable, convenient solid-phase synthesis and receptor affinities of octreotide analogs” (J Med Chem, 1994).

SMILES strings stand for the structures.

This experiment concerns the target Somatostatin receptor. Briefly: Dissociation constant binding to somatostatin receptor of At-20 mouse pituitary carcinoma cell membranes. Conditions: pituitary gland cell.

Usually Kd stands for the constant that tells how readily two partners part at equilibrium. Higher therefore signals a looser complex.

In turn, `C[C@H](O)[C@H](CO)NC(=O)[C@H](CS)NC(=O)[C@@H](NC(=O)[C@H](CCCCN)NC(=O)[C@@H](Cc1c[nH]c2ccccc12)NC(=O)[C@H](Cc1ccccc1)NC(=O)[C@H](CS)NC(=O)[C@@H](Cc1ccccc1)NC(=O)CN(CCN(CCN(CC(=O)O)CC(=O)O)CC(=O)O)CC(=O)O)[C@@H](C)O` registered a Kd of 5.57 nM.
